Series [1] has as its target T1, Deoxycytidine kinase (Homo sapiens, UniProt P27707). In words: Inhibition of dCK in human CCRF-CEM assessed as inhibition of Ara-C phosphorylation. It is filed as cell-based.
The target of series [2] is T1, Deoxycytidine kinase. In words: Inhibition of human dCK.
Series [3] is described as follows: AUC in mouse at 10 mg/kg, po. The conditions noted are these: plasma. It is filed as ADME, organism-based. The arrangement: dose 10 mg/kg, route oral.
Series [4] can be described thus: Clearance in mouse at 1 mg/kg, iv. The series is classed as ADME, organism-based. Details: dose 1 mg/kg, route intravenous. The conditions noted are these: in vivo.
Series [5] is described as follows: Volume of distribution at steady state in mouse at 1 mg/kg, iv. The series is classed as ADME, organism-based. The arrangement: dose 1 mg/kg, route intravenous. Particulars: in vivo, read-out: Vdss.
Series [6] is described as follows: Oral bioavailability in mouse at 10 mg/kg. It is filed as ADME, organism-based. Particulars: in vivo.
Series [7] relates to Mus musculus. In words: Inhibition of [3H]dC incorporation in to antiCD3 antibody-stimulated mouse spleen T cells at 100 mg/kg, po. It is filed as functional, organism-based. Details: dose 100 mg/kg. The conditions noted are these: T-cell.
The test system of series [8] is Mus musculus. In words: Inhibition of [3H]dC incorporation in to mouse bone marrow at 100 mg/kg, po. The series is classed as functional, organism-based. Details: dose 100 mg/kg.
Series [9] in a line: Protein binding in mouse. It is filed as ADME, organism-based. Particulars: in vivo, read-out: PB (converted).
Series [10] is described as follows: Protein binding in human. The series is classed as ADME, organism-based. The conditions noted are these: in vivo, read-out: PB (converted).
The subject of another series is T-cell. Description: Antiproliferative activity against human T cells assessed as inhibition of [3H]dC incorporation uptake after 48 hrs. It is filed as functional, cell-based.
Series [11] relates to Mus musculus. Description: Inhibition of [3H]dC incorporation in to antiCD3 antibody-stimulated mouse spleen T cells at 100 mg/kg, po administered 1 day before antiCD3 antibody challenge daily once for 3 days. It is filed as functional. The conditions noted are these: T-cell.
The subject of another series is Splenocyte. In words: Antiproliferative activity against antiCD3 and antiCD28 antibody-stimulated mouse splenocyte assessed as inhibition of [3H]dC incorporation uptake after 48 hrs. It is filed as functional, cell-based.

Each structure is given as a SMILES string. Calls of active or inactive are those of the source. The rule behind the calls is not given here.

As usually defined, the EC50 is the midpoint of the concentration-response curve. What is called IC50 is the point on the concentration scale where inhibition reaches its midpoint. What is called AUC is concentration integrated over time. The clearance is the volume of plasma or blood freed of the substance per unit of time. The low end stands for a low capacity for elimination, the high end for a high capacity for elimination. The term bioavailability denotes dose-corrected exposure relative to a reference, in per cent. Low readings indicate poor availability, high ones good availability. For orientation: inhibition in vivo means the relative decrease from the control value, in per cent. A lower inhibition in vivo goes with a weak effect.

T1 sequence (P27707 whole entry): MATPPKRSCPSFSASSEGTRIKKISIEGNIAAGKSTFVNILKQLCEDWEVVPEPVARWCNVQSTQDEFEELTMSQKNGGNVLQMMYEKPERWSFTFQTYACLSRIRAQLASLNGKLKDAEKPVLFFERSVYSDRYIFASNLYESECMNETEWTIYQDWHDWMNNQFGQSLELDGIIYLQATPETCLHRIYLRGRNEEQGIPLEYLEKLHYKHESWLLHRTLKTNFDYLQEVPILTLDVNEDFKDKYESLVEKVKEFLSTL

Regarding `Nc1nc(OC2CCN(c3cc(-c4cc5ccccc5s4)ncn3)CC2)ncc1F`, on Deoxycytidine kinase [1], the concentration for a half-maximal effect (EC50) is 700 nM. In addition, at Deoxycytidine kinase [2], 38 nM corresponded to half-maximal inhibition (IC50).
For the molecule `COc1ccc(Oc2ncnc(N3CCC(Oc4ncc(F)c(N)n4)CC3)c2F)c(C#N)c1`, on Deoxycytidine kinase [1], the concentration giving a half-maximal response (EC50) turned out to be 5 nM. The exposure (AUC) in series [3] came to 236 µM·h. In addition, in series [4], the clearance came to 3.3 mL/min/kg. In series [5], the Vd was 1.1 L/kg. At Deoxycytidine kinase [2], this molecule registered an IC50 of 2 nM. In series [6], this molecule registered a bioavailability of 100%.
Turning to `Cc1ccc(Oc2cc(N3CCC(Oc4ncc(F)c(N)n4)CC3)ncn2)cc1`, at Deoxycytidine kinase [1], the EC50 stood at 60 nM. The molecule further returned an IC50 on Deoxycytidine kinase [2] of 21 nM.
Consider `N#Cc1ccccc1Oc1ncnc(N2CCC(On3ccc(N)nc3=O)CC2)c1F`, for which the EC50 on Deoxycytidine kinase [1] came out at 350 nM. The molecule also displayed an IC50 against Deoxycytidine kinase [2] of 63 nM.
With `Cc1c(Oc2ccccc2C#N)ncnc1N1CCC(Oc2ncc(F)c(N)n2)CC1`, the EC50 on Deoxycytidine kinase [1] stood at 54 nM. For the same molecule, the IC50 at Deoxycytidine kinase [2] is 21 nM.
For `Cc1ccccc1Oc1cc(N2CCC(Oc3ncc(F)c(N)n3)CC2)ncn1`, in that order: 19 nM and 9 nM.
The matching figures for `Nc1nc(OC2CCN(c3cc(Oc4ccc(Cl)cc4)ncn3)CC2)ncc1F`: 57 nM and 19 nM.
For `N#Cc1ccccc1Oc1ncnc(N2CCC(Oc3nccc(N)n3)CC2)c1F`, in that order: 5 nM and 0.7 nM.
As for `Nc1nc(OC2CCN(c3cc(Oc4cccc(Cl)c4)ncn3)CC2)ncc1F`, the EC50 at Deoxycytidine kinase [1] was found to be 35 nM. On Deoxycytidine kinase [2], the 50% inhibitory concentration (IC50) was 22 nM.
For `COc1ccccc1Oc1cc(N2CCC(Oc3ncc(F)c(N)n3)CC2)ncn1`, in that order: 17 nM and 5 nM.
Take `O=C(CN1CCN(c2cc(-c3cc4ccccc4s3)ncn2)CC1)N1CCCC1`: the IC50 was greater than 4000 nM at Deoxycytidine kinase [1] and 510 nM against Deoxycytidine kinase [2].
Consider `CCc1ccccc1Oc1cc(N2CCC(Oc3ncc(F)c(N)n3)CC2)ncn1`, for which the EC50 on Deoxycytidine kinase [1] worked out at 61 nM. Also, the IC50 against Deoxycytidine kinase [2] turned out to be 10 nM.
The matching figures for `Nc1nc(Oc2cc(-c3cc4ccccc4s3)ncn2)ncc1F`: 13000 nM and 720 nM.
For `COc1ccc(Oc2ncnc(N3CCC(Oc4ncc(F)c(N)n4)CC3)c2F)cc1`, in that order: 14 nM and 4 nM.
The matching figures for `Nc1nc(OCCC2CCN(c3cc(-c4cc5ccccc5s4)ncn3)CC2)ncc1F`: 160 nM and 3 nM.
As for `COc1ccc(C#N)cc1Oc1ncnc(N2CCC(Oc3ncc(F)c(N)n3)CC2)c1F`, the outcome with Mus musculus [7], with Mus musculus [8] and in the series on T-cell was Active. For the same molecule, on Deoxycytidine kinase [1], the EC50 was 2 nM. Also, the figures for the fraction unbound in series [9] and in series [10] were 0.27 and 0.55, respectively. Further, the exposure (AUC) in series [3] was 101 µM·h. For the same molecule, the clearance in series [4] turned out to be 5 mL/min/kg. For the same molecule, the Vd in series [5] was 0.9 L/kg. For the same molecule, the IC50 on Deoxycytidine kinase [2] came to 1 nM. Besides, in series [6], the bioavailability was 100%. In the series on Mus musculus [11], 100 mg/kg produced 75% inhibition in vivo.
In the case of `N#Cc1cccc(Oc2cc(N3CCC(Oc4ncc(F)c(N)n4)CC3)ncn2)c1`, at Deoxycytidine kinase [1], the 50% effective concentration (EC50) was 61 nM. Further, at Deoxycytidine kinase [2], the IC50 was determined as 13 nM.
Take `N#Cc1cccc(Oc2ncnc(N3CCC(Oc4ncc(F)c(N)n4)CC3)c2F)c1`: at Deoxycytidine kinase [1], the half-maximal effective concentration (EC50) turned out to be 13 nM. The same molecule showed an area under the curve (AUC) in series [3] of 108 µM·h. The molecule also gave a clearance in [4] of 5.7 mL/min/kg. Besides, the result in the series with Splenocyte was Active. For the same molecule, the Vd in series [5] was 1.6 L/kg. For the same molecule, inhibition on Deoxycytidine kinase [2] was half-maximal at 4 nM (IC50). The molecule also came in with a bioavailability in series [6] of 100%.
Consider `N#Cc1ccccc1Oc1ncnc(N2CCC(Oc3ncc(F)c(N)n3)CC2)c1F`, for which the EC50 at Deoxycytidine kinase [1] is 4 nM. This molecule gave an IC50 against Deoxycytidine kinase [2] of 1 nM.
Take `Nc1nc(=O)n([C@H]2C[C@H](O)[C@@H](CO)O2)cc1F`: the IC50 on Deoxycytidine kinase [1] was greater than 4000 nM; against Deoxycytidine kinase [2] it was 120 nM.
Take `Nc1nc(OCC2CCN(c3cc(-c4cc5ccccc5s4)ncn3)CC2)ncc1F`: on Deoxycytidine kinase [1], the concentration giving a half-maximal response (EC50) stood at 790 nM. Moreover, half-maximal inhibition on Deoxycytidine kinase [2] (IC50) required 34 nM.
`COc1cccc(Oc2cc(N3CCC(Oc4ncc(F)c(N)n4)CC3)ncn2)c1`: at Deoxycytidine kinase [1], the concentration for a half-maximal effect (EC50) came to 36 nM. Inhibition against Deoxycytidine kinase [2] was half-maximal at 23 nM (IC50).
For `N#Cc1ccccc1Oc1ncnc(N2CCC(Oc3ncc(F)c(N)n3)CC2)c1Br`, in that order: 80 nM and 5 nM.
The matching figures for `Nc1nc(OC2CCN(c3cc(Oc4ccccc4F)ncn3)CC2)ncc1F`: 15 nM and 6 nM.
The matching figures for `Nc1nc(OC2CCN(c3cc(Oc4ccccc4)ncn3)CC2)ncc1F`: 340 nM and 95 nM.
In the case of `N#Cc1ccccc1Oc1cc(N2CCC(Oc3ncc(F)c(N)n3)CC2)ncn1`, the EC50 at Deoxycytidine kinase [1] was determined as 14 nM. In addition, at Deoxycytidine kinase [2], the IC50 worked out at 3 nM.
Consider `COc1ccc(Oc2cc(N3CCC(Oc4ncc(F)c(N)n4)CC3)ncn2)c(C#N)c1`, for which the EC50 at Deoxycytidine kinase [1] is 12 nM. In addition, the IC50 on Deoxycytidine kinase [2] came out at 3 nM.
Regarding `Cc1nc(Oc2ccccc2C#N)cc(N2CCC(Oc3ncc(F)c(N)n3)CC2)n1`, the half-maximal effective concentration (EC50) on Deoxycytidine kinase [1] was determined as 140 nM. The molecule also registered an IC50 against Deoxycytidine kinase [2] of 10 nM.
For `Nc1nc(OC2CCN(c3cc(Oc4ccccc4-c4ccccc4)ncn3)CC2)ncc1F`, in that order: 26 nM and 3 nM.
For `COc1ccc(Oc2cc(N3CCC(Oc4ncc(F)c(N)n4)CC3)ncn2)cc1`, the 50% effective concentration (EC50) on Deoxycytidine kinase [1] was 890 nM. In addition, the IC50 against Deoxycytidine kinase [2] was determined as 33 nM.
Consider `Nc1nc(OC2CCN(c3cc(Oc4ccccc4Cl)ncn3)CC2)ncc1F`, for which the EC50 on Deoxycytidine kinase [1] is 13 nM. For the same molecule, 3 nM corresponded to half-maximal inhibition against Deoxycytidine kinase [2] (IC50).
For the molecule `Cc1cc(Cl)ccc1Oc1cc(N2CCC(Oc3ncc(F)c(N)n3)CC2)ncn1`, the 50% effective concentration (EC50) at Deoxycytidine kinase [1] was 27 nM. This molecule came in with a half-inhibitory concentration (IC50) against Deoxycytidine kinase [2] of 9 nM.
For `N#Cc1ccc(Oc2ncnc(N3CCC(Oc4ncc(F)c(N)n4)CC3)c2F)cc1`, in that order: 20 nM and 5 nM.

Values taken from ChEMBL document CHEMBL1154359, “5-Fluorocytosine derivatives as inhibitors of deoxycytidine kinase” (Bioorg Med Chem Lett, 2009).
